Columns and labels:
Assay in all cases: kinobeads assay with mass spectrometry detection of kinases (kinase selectivity profile)
Assay type in all cases: binding
kinases (kinome) [1] = molecular target: T1, kinases (kinome) (Homo sapiens, UniProt P37173); settings: TGFbR2 (TKL), IPI00164934
T1 construct: determined in kinobeads assays with mass spectrometry detection of kinases as described previously; endogenous in cells; host or cells: cell lysate
Source text: (§1) The protein kinase complement of the human genome (the kinome) was described previously (Manning et al., 2002. Science 298(5600):1912-1934). Sequence accession numbers are defined by the International Protein Index (IPI) (Kersey et al., 2004. Proteomics 4(7):1985-1988).

kinases (kinome) [2] = molecular target: T2, kinases (kinome) (Homo sapiens, UniProt Q16566); settings: CaMK4 (CAMK), IPI00430411
T2 construct: determined in kinobeads assays with mass spectrometry detection of kinases as described previously; endogenous in cells; host or cells: cell lysate
T2 sequence (Q16566 1-473): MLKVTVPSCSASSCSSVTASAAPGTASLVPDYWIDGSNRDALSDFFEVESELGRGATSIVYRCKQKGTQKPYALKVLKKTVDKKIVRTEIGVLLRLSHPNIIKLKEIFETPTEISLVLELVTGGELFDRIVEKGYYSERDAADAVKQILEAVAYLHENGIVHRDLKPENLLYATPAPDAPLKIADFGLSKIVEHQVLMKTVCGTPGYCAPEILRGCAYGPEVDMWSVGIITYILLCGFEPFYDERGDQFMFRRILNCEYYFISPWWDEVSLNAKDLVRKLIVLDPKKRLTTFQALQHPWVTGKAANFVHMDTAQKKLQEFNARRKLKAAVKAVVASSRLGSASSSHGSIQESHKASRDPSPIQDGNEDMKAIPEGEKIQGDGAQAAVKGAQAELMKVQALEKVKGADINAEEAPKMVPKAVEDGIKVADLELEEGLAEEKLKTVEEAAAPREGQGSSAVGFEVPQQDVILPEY
Source text: as §1

kinases (kinome) [3] = molecular target: T3, kinases (kinome) (Homo sapiens, UniProt Q9P2K8); settings: GCN2 (Other), IPI00163851
T3 construct: determined in kinobeads assays with mass spectrometry detection of kinases as described previously; endogenous in cells; host or cells: cell lysate
Source text: as §1

kinases (kinome) [4] = molecular target: T4, kinases (kinome) (Homo sapiens, UniProt Q13418); settings: ILK (TKL), IPI00013219
T4 construct: determined in kinobeads assays with mass spectrometry detection of kinases as described previously; endogenous in cells; host or cells: cell lysate
T4 sequence (Q13418 1-452): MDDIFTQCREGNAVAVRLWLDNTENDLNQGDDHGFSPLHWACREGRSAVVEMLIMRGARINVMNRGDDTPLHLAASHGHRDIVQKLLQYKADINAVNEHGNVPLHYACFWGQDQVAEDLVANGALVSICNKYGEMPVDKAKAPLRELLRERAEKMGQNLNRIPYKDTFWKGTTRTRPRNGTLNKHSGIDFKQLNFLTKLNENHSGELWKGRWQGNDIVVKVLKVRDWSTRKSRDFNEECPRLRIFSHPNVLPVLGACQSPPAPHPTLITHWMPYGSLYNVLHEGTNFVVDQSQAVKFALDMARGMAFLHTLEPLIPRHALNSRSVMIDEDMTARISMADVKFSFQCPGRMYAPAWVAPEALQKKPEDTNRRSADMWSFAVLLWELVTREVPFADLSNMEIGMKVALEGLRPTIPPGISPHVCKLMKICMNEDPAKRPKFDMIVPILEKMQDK
Source text: as §1

kinases (kinome) [5] = molecular target: T5, kinases (kinome) (Homo sapiens, UniProt P43403); settings: ZAP70 (TK), IPI00329789
T5 construct: determined in kinobeads assays with mass spectrometry detection of kinases as described previously; endogenous in cells; host or cells: cell lysate
T5 sequence (P43403 1-619): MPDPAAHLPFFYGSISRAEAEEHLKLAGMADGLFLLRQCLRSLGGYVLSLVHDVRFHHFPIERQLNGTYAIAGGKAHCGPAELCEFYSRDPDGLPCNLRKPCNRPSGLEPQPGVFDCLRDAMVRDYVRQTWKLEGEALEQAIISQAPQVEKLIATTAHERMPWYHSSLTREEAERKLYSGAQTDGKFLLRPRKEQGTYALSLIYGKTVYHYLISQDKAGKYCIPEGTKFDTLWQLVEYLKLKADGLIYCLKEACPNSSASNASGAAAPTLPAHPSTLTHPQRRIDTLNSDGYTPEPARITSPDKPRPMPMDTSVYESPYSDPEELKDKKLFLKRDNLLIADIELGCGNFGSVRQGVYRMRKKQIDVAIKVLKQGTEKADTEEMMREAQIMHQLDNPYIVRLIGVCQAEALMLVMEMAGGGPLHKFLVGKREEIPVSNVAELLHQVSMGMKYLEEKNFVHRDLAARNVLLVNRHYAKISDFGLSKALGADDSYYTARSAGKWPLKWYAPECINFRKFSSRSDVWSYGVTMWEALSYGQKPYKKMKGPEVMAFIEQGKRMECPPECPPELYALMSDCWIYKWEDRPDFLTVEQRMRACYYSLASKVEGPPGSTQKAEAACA
Source text: as §1

kinases (kinome) [6] = molecular target: T6, kinases (kinome) (Homo sapiens, UniProt Q05655); settings: PKCd (AGC), IPI00329236
T6 construct: determined in kinobeads assays with mass spectrometry detection of kinases as described previously; endogenous in cells; host or cells: cell lysate
Source text: as §1

kinases (kinome) [7] = molecular target: T7, kinases (kinome) (Homo sapiens, UniProt Q13535); settings: ATR (Atypical), IPI00412298; 0.1 μM ranges
T7 construct: determined in kinobeads assays with mass spectrometry detection of kinases as described previously; endogenous in cells; host or cells: cell lysate
Source text: as §1

kinases (kinome) [8] = molecular target: T8, kinases (kinome) (Homo sapiens, UniProt Q15131); settings: CDK10 (CMGC), IPI00014873
T8 construct: determined in kinobeads assays with mass spectrometry detection of kinases as described previously; endogenous in cells; host or cells: cell lysate
Source text: as §1

kinases (kinome) [9] = molecular target: T9, kinases (kinome) (Homo sapiens, UniProt Q8NEB9); settings: PIK3C3 (Lipid Kinase), IPI00873758
T9 construct: determined in kinobeads assays with mass spectrometry detection of kinases as described previously; endogenous in cells; host or cells: cell lysate
Source text: as §1

T7 sequence (Q13535 whole entry): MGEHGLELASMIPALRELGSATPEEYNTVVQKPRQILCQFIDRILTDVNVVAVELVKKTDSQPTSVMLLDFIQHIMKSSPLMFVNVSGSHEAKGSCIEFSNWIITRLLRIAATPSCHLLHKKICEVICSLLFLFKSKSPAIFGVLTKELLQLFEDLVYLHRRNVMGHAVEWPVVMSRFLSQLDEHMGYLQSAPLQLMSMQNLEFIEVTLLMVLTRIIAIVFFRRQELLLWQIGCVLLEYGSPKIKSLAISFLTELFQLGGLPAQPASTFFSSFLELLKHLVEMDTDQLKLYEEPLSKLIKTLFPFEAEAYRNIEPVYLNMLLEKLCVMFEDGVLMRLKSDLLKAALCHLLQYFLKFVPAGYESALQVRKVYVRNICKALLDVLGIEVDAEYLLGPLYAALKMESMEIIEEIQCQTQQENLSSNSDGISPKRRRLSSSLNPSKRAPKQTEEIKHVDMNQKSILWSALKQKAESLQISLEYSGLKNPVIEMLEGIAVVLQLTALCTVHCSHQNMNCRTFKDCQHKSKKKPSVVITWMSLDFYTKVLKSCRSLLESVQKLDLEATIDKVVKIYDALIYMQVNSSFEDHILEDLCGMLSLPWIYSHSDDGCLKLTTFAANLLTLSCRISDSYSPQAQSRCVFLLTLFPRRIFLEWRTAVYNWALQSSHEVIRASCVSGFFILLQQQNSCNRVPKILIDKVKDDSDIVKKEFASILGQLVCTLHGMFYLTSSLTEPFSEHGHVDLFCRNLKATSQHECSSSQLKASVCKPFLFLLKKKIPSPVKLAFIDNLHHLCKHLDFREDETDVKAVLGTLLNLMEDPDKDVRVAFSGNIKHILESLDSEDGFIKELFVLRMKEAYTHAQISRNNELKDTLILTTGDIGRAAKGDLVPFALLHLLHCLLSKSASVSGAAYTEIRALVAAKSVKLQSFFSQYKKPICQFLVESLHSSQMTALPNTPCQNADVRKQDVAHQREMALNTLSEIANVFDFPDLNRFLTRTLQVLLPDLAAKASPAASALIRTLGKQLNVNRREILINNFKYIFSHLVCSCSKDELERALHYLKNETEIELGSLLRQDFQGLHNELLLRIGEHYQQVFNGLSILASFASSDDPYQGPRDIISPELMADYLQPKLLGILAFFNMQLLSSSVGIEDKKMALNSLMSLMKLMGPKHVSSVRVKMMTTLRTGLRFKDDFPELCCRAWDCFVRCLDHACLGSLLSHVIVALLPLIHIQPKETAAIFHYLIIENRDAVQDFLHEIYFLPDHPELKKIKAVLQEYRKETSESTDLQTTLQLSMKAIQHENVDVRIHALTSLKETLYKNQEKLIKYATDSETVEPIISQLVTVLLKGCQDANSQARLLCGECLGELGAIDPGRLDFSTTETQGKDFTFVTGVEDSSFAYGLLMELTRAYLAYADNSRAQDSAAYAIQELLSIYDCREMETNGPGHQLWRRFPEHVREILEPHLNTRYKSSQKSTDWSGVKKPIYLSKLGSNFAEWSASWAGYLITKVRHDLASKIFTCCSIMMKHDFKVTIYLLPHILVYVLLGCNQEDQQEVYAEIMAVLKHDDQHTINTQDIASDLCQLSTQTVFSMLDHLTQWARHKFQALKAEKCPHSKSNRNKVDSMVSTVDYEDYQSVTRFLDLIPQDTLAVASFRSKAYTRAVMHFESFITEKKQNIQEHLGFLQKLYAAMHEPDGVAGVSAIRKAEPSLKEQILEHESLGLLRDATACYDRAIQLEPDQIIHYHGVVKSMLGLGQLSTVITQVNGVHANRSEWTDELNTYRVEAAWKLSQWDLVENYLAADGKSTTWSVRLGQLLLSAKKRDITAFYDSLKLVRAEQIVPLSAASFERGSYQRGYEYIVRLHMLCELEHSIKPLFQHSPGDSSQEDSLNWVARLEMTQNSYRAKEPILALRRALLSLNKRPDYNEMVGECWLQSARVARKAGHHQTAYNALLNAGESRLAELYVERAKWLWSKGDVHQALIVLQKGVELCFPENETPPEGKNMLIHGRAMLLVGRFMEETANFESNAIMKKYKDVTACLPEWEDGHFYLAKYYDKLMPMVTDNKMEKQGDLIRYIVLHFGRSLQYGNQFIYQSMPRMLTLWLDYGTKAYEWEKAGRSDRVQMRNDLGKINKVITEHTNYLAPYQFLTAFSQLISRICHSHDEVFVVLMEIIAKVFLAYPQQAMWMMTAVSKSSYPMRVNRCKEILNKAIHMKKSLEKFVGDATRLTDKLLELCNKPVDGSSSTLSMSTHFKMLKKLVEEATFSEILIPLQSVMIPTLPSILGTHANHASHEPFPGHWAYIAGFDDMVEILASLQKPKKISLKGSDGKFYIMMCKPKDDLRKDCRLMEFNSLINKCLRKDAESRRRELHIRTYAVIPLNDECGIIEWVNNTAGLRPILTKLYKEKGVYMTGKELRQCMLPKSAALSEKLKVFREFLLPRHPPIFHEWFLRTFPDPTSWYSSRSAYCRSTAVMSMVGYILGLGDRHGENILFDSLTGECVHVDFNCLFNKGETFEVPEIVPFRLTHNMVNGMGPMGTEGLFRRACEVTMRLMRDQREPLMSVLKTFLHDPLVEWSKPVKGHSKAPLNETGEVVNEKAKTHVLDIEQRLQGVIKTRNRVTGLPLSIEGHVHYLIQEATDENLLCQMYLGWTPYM
T9 sequence (Q8NEB9 whole entry): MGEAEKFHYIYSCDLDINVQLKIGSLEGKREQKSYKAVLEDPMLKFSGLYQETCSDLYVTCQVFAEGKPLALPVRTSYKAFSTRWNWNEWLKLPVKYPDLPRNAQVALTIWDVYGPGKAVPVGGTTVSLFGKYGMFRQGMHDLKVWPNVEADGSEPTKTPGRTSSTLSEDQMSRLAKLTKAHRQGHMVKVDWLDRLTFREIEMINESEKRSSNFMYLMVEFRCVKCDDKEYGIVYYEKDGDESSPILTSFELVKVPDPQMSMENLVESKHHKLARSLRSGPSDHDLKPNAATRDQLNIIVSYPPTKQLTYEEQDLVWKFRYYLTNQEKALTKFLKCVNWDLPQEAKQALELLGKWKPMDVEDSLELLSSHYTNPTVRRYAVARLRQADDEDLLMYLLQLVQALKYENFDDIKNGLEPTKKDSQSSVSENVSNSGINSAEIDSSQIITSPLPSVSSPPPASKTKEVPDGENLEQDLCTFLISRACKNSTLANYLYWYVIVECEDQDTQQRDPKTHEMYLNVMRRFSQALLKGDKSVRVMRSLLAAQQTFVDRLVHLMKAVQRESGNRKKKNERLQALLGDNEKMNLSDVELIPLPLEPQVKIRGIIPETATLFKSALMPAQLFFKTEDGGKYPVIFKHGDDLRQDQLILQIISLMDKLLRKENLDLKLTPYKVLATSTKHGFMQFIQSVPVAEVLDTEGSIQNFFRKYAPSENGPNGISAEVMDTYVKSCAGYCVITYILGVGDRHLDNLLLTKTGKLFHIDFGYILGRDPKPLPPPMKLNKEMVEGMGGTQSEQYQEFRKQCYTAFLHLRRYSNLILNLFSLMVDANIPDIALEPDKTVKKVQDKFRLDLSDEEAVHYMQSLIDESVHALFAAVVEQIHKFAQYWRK
T6 sequence (Q05655 whole entry): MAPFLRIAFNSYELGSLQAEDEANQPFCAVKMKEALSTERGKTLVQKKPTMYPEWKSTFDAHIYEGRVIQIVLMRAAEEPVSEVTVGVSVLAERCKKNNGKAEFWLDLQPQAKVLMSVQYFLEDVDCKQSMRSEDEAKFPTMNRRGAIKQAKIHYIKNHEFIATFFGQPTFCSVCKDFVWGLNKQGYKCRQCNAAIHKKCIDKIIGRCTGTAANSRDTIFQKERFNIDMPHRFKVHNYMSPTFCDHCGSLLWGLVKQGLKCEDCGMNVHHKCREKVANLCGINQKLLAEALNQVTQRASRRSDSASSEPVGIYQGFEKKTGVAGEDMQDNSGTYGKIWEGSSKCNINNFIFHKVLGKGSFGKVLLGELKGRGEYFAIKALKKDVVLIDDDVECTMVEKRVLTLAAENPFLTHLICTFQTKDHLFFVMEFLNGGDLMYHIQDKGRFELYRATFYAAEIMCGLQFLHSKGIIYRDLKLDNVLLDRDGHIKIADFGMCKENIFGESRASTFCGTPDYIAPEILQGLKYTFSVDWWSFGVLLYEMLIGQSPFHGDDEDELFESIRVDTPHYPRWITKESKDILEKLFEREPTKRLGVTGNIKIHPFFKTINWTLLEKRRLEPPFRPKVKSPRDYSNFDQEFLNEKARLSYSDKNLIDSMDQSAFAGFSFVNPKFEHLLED
T8 sequence (Q15131 whole entry): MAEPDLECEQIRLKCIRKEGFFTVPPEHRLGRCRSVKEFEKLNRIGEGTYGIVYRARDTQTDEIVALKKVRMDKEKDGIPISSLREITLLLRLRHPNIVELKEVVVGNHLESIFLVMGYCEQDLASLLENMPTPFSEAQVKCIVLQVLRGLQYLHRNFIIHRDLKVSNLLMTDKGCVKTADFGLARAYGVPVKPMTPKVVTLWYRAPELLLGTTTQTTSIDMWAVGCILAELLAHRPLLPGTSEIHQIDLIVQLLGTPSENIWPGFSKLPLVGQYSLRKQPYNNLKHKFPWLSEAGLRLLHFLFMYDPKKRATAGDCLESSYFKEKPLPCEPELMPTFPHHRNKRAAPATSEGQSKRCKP
T1 sequence (P37173 23-567): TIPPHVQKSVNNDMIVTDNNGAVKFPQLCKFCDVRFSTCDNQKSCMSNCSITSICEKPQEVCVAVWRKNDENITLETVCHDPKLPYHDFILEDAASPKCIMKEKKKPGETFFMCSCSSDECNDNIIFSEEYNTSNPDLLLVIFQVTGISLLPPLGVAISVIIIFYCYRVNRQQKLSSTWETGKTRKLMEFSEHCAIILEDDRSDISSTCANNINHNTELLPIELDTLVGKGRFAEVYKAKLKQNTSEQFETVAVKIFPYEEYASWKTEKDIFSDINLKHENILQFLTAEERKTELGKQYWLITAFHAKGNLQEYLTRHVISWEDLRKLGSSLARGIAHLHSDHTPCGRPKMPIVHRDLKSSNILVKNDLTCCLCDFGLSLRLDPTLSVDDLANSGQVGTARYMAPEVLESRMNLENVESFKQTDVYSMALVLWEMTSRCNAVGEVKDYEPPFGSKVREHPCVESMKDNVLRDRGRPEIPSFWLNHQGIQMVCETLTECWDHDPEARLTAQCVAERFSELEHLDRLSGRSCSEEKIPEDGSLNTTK

| IC50 (kinases (kinome) [1]) [µM] | IC50 (kinases (kinome) [2]) [µM] | IC50 (kinases (kinome) [3]) [µM] | IC50 (kinases (kinome) [4]) [µM] | IC50 (kinases (kinome) [5]) [µM] | IC50 (kinases (kinome) [6]) [µM] | IC50 (kinases (kinome) [7]) [µM] | IC50 (kinases (kinome) [8]) [µM] | IC50 (kinases (kinome) [9]) [µM] | Structure (SMILES) |
| --- | --- | --- | --- | --- | --- | --- | --- | --- | --- |
| > 10 | > 10 | > 10 | > 10 | > 10 | > 10 | > 10 | > 10 | > 10 | C[C@H]1COCCN1c1nc(-c2ccc(NC(=O)NC3CC3)cc2)cc(-c2ccccc2S(C)(=O)=O)n1 [Example 4, (S)-1-cyclopropyl-3-(4-(2-(3-methylmorpholino)-6-(2-(methylsulfonyl)phenyl)pyrimidin-4-yl)phenyl)urea] |
| > 10 |  | > 10 |  | > 10 | > 10 | > 10 |  | > 10 | C[C@H]1COCCN1c1nc(-c2ccc(NC(=O)NC3CC3)cc2)cc(-c2cccnc2S(C)(=O)=O)n1 [Example 46, (S)-1-cyclopropyl-3-(4-(2-(3-methylmorpholino)-6-(2-(methylsulfonyl)pyridin-3-yl)pyrimidin-4-yl)phenyl)urea] |
|  | > 10 | > 10 | > 10 | > 10 | > 10 | > 10 | > 10 | > 10 | C[C@H]1COCCN1c1cc(-c2ccccn2)nc(-c2ccc(NC(=O)NCCO)cc2)n1 [Example 43, (S)-1-(2-hydroxyethyl)-3-(4-(4-(3-methylmorpholino)-6-(pyridin-2-yl)pyrimidin-2-yl)phenyl)urea] |

The remaining lines, values behind:

| Structure (SMILES) | IC50 (kinases (kinome) [1]) [µM] | IC50 (kinases (kinome) [2]) [µM] | IC50 (kinases (kinome) [3]) [µM] | IC50 (kinases (kinome) [4]) [µM] | IC50 (kinases (kinome) [5]) [µM] | IC50 (kinases (kinome) [6]) [µM] | IC50 (kinases (kinome) [7]) [µM] | IC50 (kinases (kinome) [8]) [µM] | IC50 (kinases (kinome) [9]) [µM] |
| --- | --- | --- | --- | --- | --- | --- | --- | --- | --- |
| C[C@H]1COCCN1c1cc(-c2ccccc2S(C)(=O)=O)nc(-c2ccc(NC(=O)NC3CC3)cc2)n1 [Example 6, (S)-1-cyclopropyl-3-(4-(4-(3-methylmorpholino)-6-(2-(methylsulfonyl)phenyl)pyrimidin-2-yl)phenyl)urea] | > 10 | > 10 | > 10 |  |  |  |  |  |  |
| CCNC(=O)Nc1ccc(-c2cc(-c3ccccc3C#N)nc(N3CCOC[C@@H]3C)n2)cc1 [Example 8, (S)-1-(4-(6-(2-cyanophenyl)-2-(3-methylmorpholino)pyrimidin-4-yl)phenyl)-3-ethylurea] |  | > 10 |  | > 10 |  |  |  |  |  |
| C[C@H]1COCCN1c1nc(-c2ccc(NC(=O)N[C@H]3CCC[C@@H]3O)cc2)cc(-c2cc(F)ccc2S(C)(=O)=O)n1 [Example 76, 1-(4-(6-(5-fluoro-2-(methylsulfonyl)phenyl)-2-((S)-3-methylmorpholino)pyrimidin-4-yl)phenyl)-3-((1S,2S)-2-hydroxycyclopentyl)urea] | > 10 |  |  | > 10 |  | > 10 | > 10 |  | > 10 |
| C[C@H]1COCCN1c1nc(-c2ccc(NC(=O)NC3CC3)cc2)cc(-c2cc(F)ccc2S(C)(=O)=O)n1 [Example 40, (S)-1-cyclopropyl-3-(4-(6-(5-fluoro-2-(methylsulfonyl)phenyl)-2-(3-methylmorpholino)pyrimidin-4-yl)phenyl)urea] | > 10 | > 10 |  | > 10 | > 10 | > 10 | 1.1 to 1.2 | > 10 | > 10 |

— patent publication US9249129B2, “Morpholino substituted urea derivatives as mTOR inhibitors” (CELLZOME LIMITED, priority 2010, dated 2016)
